The source of these data is patent publication US12060349B2, “Glucosylceramide synthase inhibitors” (Genzyme Corporation, priority 2012, dated 2024).

In experiment [1] the test system is GM3 expression on the cell surface, B16 mouse melanoma cells. Kind of experiment: cell based phenotypic assay, cell surface GM3 by antibody mediated immunofluorescence, B16 (GM3 B16 IC50). As to conditions: Mus musculus, 50% inhibition of GM3 expression on the cell surface. An outline of the steps:
(§1)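 Two melanoma lines, mouse B16 and human C32, were treated and surface GM3 quantified by antibody immunofluorescence for IC50. A parallel viability readout gives the concentration killing 50% of cells, with values over 10 indicating no cell death.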

Experiment [2] has as its system GM3 expression on the cell surface, C32 human melanoma cells. Kind of experiment: cell based phenotypic assay, cell surface GM3 by antibody mediated immunofluorescence, C32 (GM3 C32 IC50). As to conditions: Homo sapiens, 50% inhibition of GM3 expression on the cell surface. Put shortly:
as §1

For experiment [3], the system named is B16 mouse melanoma cells. Kind of experiment: cell viability in the B16 cell-based assay (Viability, B16 IC50). The following applies: Mus musculus. An outline of the steps: as §1
In experiment [4] the target is T1, glucosylceramide synthase (Homo sapiens, UniProt Q16739).
T1 construct: Microsomes were isolated from A375 human melanoma cells; endogenous in cells; host or cells: A375 human melanoma cells (microsomal fraction, 100,000 g pellet)
T1 sequence (Q16739 1-394): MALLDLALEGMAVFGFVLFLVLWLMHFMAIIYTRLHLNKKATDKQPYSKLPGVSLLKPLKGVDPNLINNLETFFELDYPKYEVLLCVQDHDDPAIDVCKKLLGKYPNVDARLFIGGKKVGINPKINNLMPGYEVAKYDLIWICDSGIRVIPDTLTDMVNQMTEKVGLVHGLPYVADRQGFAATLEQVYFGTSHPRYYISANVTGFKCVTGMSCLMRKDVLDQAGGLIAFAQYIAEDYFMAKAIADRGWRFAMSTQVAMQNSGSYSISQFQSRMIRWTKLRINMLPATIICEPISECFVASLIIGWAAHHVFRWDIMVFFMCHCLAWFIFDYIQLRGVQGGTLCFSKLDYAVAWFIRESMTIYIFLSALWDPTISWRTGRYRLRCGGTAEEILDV
Kind of experiment: microsomal assay measuring conversion of ceramide to glucosylceramide by HPLC (GCS IC50). The following applies: concentration causing 50% inhibition of glucosylceramide synthase activity. The class given is biochemical. Put shortly:
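Microsomal preparation assayed for glucosylceramide synthase by direct HPLC measurement of ceramide conversion to glucosylceramide. GCS IC50 is the compound concentration giving 50% inhibition of enzyme activity.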

In experiment [5] the test system is C32 human melanoma cells. Kind of experiment: cell viability in the C32 cell-based assay (Viability, C32 IC50). The following applies: Homo sapiens, concentration causing 50% cell death, values greater than 10 represent a lack of cell death. Put shortly: as §1
[6] abbreviates: B16 mouse melanoma cells, read-out: GM3 B16 IC50.
[7] abbreviates: C32 human melanoma cells, read-out: GM3 C32 IC50.
[8] abbreviates: B16, B16 cells, concentration causing 50% cell death, values greater than 10 represent a lack of cell death, read-out: Viability, B16 IC50.
The mark [9] stands for this setting: C32, C32 cells, read-out: Viability, C32 IC50.
Where [10] appears, read: read-out: GM3 B16 IC50, B16 mouse melanoma cells.
Where [11] appears, read: read-out: GM3 C32 IC50, C32 human melanoma cells.
Where [12] appears, read: B16, read-out: Viability, B16 IC50.
Setting [13] is: C32, read-out: Viability, C32 IC50, C32 cells.

Usually IC50 stands for the concentration at which inhibition is half-maximal.

The structures appear in SMILES notation. Like-named read-outs stand apart in the source and are kept apart here. Where only a bound is given, the exact number is not on record here.

`CNC(=O)c1ccc(-c2ccc(C(C)(C)NC(=O)NC3(C)CN4CCC3CC4)cc2)cc1` (stereo not drawn) [Example 253, N-Methyl-4′-(2-(3-(3-methylquinuclidin-3-yl)ureido)propan-2-yl)-[1,1′-biphenyl]-4-carboxamide]: the IC50 was found to be 2000 nM in experiment [1] (setting [6]); 201 nM in experiment [2] (setting [7]); 2000 nM in experiment [3] (setting [8]); 751 nM in experiment [4]; 2000 nM in experiment [5] (setting [9]).

As to `CNC(=O)c1ccc(-c2ccc(C(C)(C)NC(=O)OC3CCN4CCC3CC4)cc2)cc1` (stereo not drawn) [Example 254, 1-Azabicyclo[3.2.2]nonan-4-yl (2-(4′-(methylcarbamoyl)-[1,1′-biphenyl]-4-yl)propan-2-yl)carbamate], the IC50 in experiment [1] (setting [6]) was 650 nM; in experiment [2] (setting [7]), 63.8 nM; in experiment [3] (setting [8]) it was no less than 10000 nM; in experiment [4], 600 nM; in experiment [5] (setting [9]), no less than 10000 nM.

Turning to `CNC(=O)c1ccc(-c2ccc(C(C)(C)NC(=O)NC3(C)CCN4CCC3CC4)cc2)cc1` (stereo not drawn) [Example 255, N-Methyl-4′-(2-(3-(4-methyl-1-aza-bicyclo[3.2.2]nonan-4-yl)ureido)propan-2-yl)biphenyl-4-carboxamide], the IC50 is 3420 nM in experiment [1] (setting [6]); 20.1 nM in experiment [2] (setting [7]); 6790 nM in experiment [3] (setting [8]); 46.9 nM in experiment [4]; 1000 nM in experiment [5] (setting [9]).

For the compound `CNC(=O)c1ccc(-c2ccc(C(C)(C)NC(=O)N3CCN4CCC3CC4)cc2)cc1` [Example 256, N-(2-(4′-(Methylcarbamoyl)biphenyl-4-yl)propan-2-yl)-1,4-diazabicyclo[3.2.2]nonane-4-carboxamide], the IC50 was 4440 nM in experiment [1] (setting [6]); 729 nM in experiment [2] (setting [7]); no less than 10000 nM in experiment [3] (setting [8]); 12300 nM in experiment [4]; no less than 10000 nM in experiment [5] (setting [9]).

`CN(C)C(=O)c1ccc(-c2ccc(C(C)(C)NC(=O)OC3CN4CCC3CC4)cc2)cc1` (stereo not drawn) [Example 257, Quinuclidin-3-yl 2-(4′-(dimethylcarbamoyl)biphenyl-4-yl)propan-2-ylcarbamate]: the IC50 was 786 nM in experiment [1] (setting [10]); 77.2 nM in experiment [2] (setting [11]); no less than 10000 nM in experiment [3] (setting [12]); 365 nM in experiment [4]; no less than 10000 nM in experiment [5] (setting [13]).

Consider `CN(C)C(=O)c1ccc(-c2ccc(C(C)(C)NC(=O)NC3(C)CN4CCC3CC4)cc2)cc1` (stereo not drawn) [Example 258, N,N-Dimethyl-4′-(2-(3-(3-methylquinuclidin-3-yl)ureido)propan-2-yl)biphenyl-4-carboxamide], for which the IC50 was 2340 nM in experiment [1] (setting [6]); 49 nM in experiment [2] (setting [7]); no less than 10000 nM in experiment [3] (setting [8]); 281 nM in experiment [4]; no less than 10000 nM in experiment [5] (setting [9]).

With `CN(C)C(=O)c1ccc(-c2ccc(C(C)(C)NC(=O)OC3CCN4CCC3CC4)cc2)cc1` (stereo not drawn) [Example 259, 1-Azabicyclo[3.2.2]nonan-4-yl 2-(4′-(dimethylcarbamoyl)biphenyl-4-yl)propan-2-ylcarbamate], the half-maximal inhibitory concentration (IC50) in experiment [1] (setting [6]) is 179 nM; in experiment [2] (setting [7]), 20.5 nM; in experiment [3] (setting [8]), no less than 10000 nM; in experiment [4] it was 134 nM; in experiment [5] (setting [9]) it was no less than 10000 nM.

For the compound `CN(C)C(=O)c1ccc(-c2ccc(C(C)(C)NC(=O)N3CCN4CCC3CC4)cc2)cc1` [Example 260, N-(2-(4′-(Dimethylcarbamoyl)biphenyl-4-yl)propan-2-yl)-1,4-diazabicyclo[3.2.2]nonane-4-carboxamide], the IC50 is 1640 nM in experiment [1] (setting [6]); 302 nM in experiment [2] (setting [7]); no less than 10000 nM in experiment [3] (setting [8]); 8550 nM in experiment [4]; no less than 10000 nM in experiment [5] (setting [9]).

As for `CN(C)C(=O)c1ccc(-c2ccc(C(C)(C)NC(=O)NC3(C)CCN4CCC3CC4)cc2)cc1` (stereo not drawn) [Example 261, N,N-Dimethyl-4′-(2-(3-(4-methyl-1-azabicyclo[3.2.2]nonan-4-yl)ureido)propan-2-yl)biphenyl-4-carboxamide], the IC50 in experiment [1] (setting [6]) is 354 nM; in experiment [2] (setting [7]), 14.1 nM; in experiment [3] (setting [8]), no less than 10000 nM; in experiment [4], 60.8 nM; in experiment [5] (setting [9]), 3160 nM.

Regarding `CC(C)(NC(=O)OC1CN2CCC1CC2)c1ccc(-c2ccc(C(=O)N3CCCCC3)cc2)cc1` (stereo not drawn) [Example 262, Quinuclidin-3-yl 2-(4′-(piperidine-1-carbonyl)biphenyl-4-yl)propan-2-ylcarbamate], the IC50 in experiment [1] (setting [10]) was 112 nM; in experiment [2] (setting [11]), 3.5 nM; in experiment [3] (setting [12]), no less than 10000 nM; in experiment [4], 19.6 nM; in experiment [5] (setting [13]), 1000 nM.

`CC(C)(NC(=O)OC1CCN2CCC1CC2)c1ccc(-c2ccc(C(=O)N3CCCCC3)cc2)cc1` (stereo not drawn) [Example 263, 1-Azabicyclo[3.2.2]nonan-4-yl 2-(4′-(piperidine-1-carbonyl)biphenyl-4-yl)propan-2-ylcarbamate]: the IC50 in experiment [1] (setting [6]) is 75 nM; in experiment [2] (setting [7]), 3.01 nM; in experiment [3] (setting [8]), no less than 10000 nM; in experiment [4], 14.5 nM; in experiment [5] (setting [9]), 1000 nM.

Regarding `CCC1(NC(=O)NC(C)(C)c2ccc(-c3ccc(C(=O)N4CCCCC4)cc3)cc2)CN2CCC1CC2` (stereo not drawn) [Example 264, 1-(3-Ethylquinuclidin-3-yl)-3-(2-(4′-(piperidine-1-carbonyl)biphenyl-4-yl)propan-2-yl)urea], the IC50 in experiment [1] (setting [6]) is 67.4 nM; in experiment [2] (setting [7]), 2.13 nM; in experiment [3] (setting [8]), no less than 10000 nM; in experiment [4], 13.7 nM; in experiment [5] (setting [9]), 1000 nM.

For the compound `CC(C)(NC(=O)OC1CN2CCC1CC2)c1ccc(-c2ccc(C(=O)N3CCOCC3)cc2)cc1` (stereo not drawn) [Example 265, Quinuclidin-3-yl 2-(4′-(morpholine-4-carbonyl)biphenyl-4-yl)propan-2-ylcarbamate], the IC50 in experiment [1] (setting [10]) is 454 nM; in experiment [2] (setting [11]), 39.9 nM; in experiment [3] (setting [12]), no less than 10000 nM; in experiment [4], 480 nM; in experiment [5] (setting [13]) it was 2150 nM.

For `CC(C)(NC(=O)OC1CCN2CCC1CC2)c1ccc(-c2ccc(C(=O)N3CCOCC3)cc2)cc1` (stereo not drawn) [Example 266, 1-Azabicyclo[3.2.2]nonan-4-yl 2-(4′-(morpholine-4-carbonyl)biphenyl-4-yl)propan-2-ylcarbamate], the IC50 in experiment [1] (setting [6]) was 284 nM; in experiment [2] (setting [7]), 22.7 nM; in experiment [3] (setting [8]) it was no less than 10000 nM; in experiment [4], 399 nM; in experiment [5] (setting [9]), 1000 nM.

As to `CC(C)(NC(=O)NC1(C)CN2CCC1CC2)c1ccc(-c2ccc(C(=O)N3CCOCC3)cc2)cc1` (stereo not drawn) [Example 267, 1-(3-Methylquinuclidin-3-yl)-3-(2-(4′-(morpholine-4-carbonyl)biphenyl-4-yl)propan-2-yl)urea], the IC50 in experiment [1] (setting [6]) is 2770 nM; in experiment [2] (setting [7]), 119 nM; in experiment [3] (setting [8]), 565 nM; in experiment [4], 363 nM; in experiment [5] (setting [9]), no less than 10000 nM.

In the case of `CC(C)(NC(=O)NC1(C)CCN2CCC1CC2)c1ccc(-c2ccc(C(=O)N3CCOCC3)cc2)cc1` (stereo not drawn) [Example 268, 1-(4-Methyl-1-azabicyclo[3.2.2]nonan-4-yl)-3-(2-(4′-(morpholine-4-carbonyl)biphenyl-4-yl)propan-2-yl)urea], the IC50 in experiment [1] (setting [6]) was 648 nM; in experiment [2] (setting [7]), 31.5 nM; in experiment [3] (setting [8]) it was no less than 10000 nM; in experiment [4] it was 166 nM; in experiment [5] (setting [9]) it was 1000 nM.

Consider `CC(C)(NC(=O)N1CCN2CCC1CC2)c1ccc(-c2ccc(C(=O)N3CCOCC3)cc2)cc1` [Example 269, N-(2-(4′-(Morpholine-4-carbonyl)biphenyl-4-yl)propan-2-yl)-1,4-diazabicyclo[3.2.2]nonane-4-carboxamide], for which the IC50 in experiment [1] (setting [6]) is 2160 nM; in experiment [2] (setting [7]), 518 nM; in experiment [3] (setting [8]) it was no less than 10000 nM; in experiment [4], 23000 nM; in experiment [5] (setting [9]), no less than 10000 nM.

In the case of `CC(C)(NC(=O)OC1CN2CCC1CC2)c1ccc(-c2ccc(C(=O)N3CCC(F)(F)CC3)cc2)cc1` (stereo not drawn) [Example 270, Quinuclidin-3-yl 2-(4′-(4,4-difluoropiperidine-1-carbonyl)biphenyl-4-yl)propan-2-ylcarbamate], the half-inhibitory concentration (IC50) was 67 nM in experiment [1] (setting [10]); 3.56 nM in experiment [2] (setting [11]); no less than 10000 nM in experiment [3] (setting [12]); 25 nM in experiment [4]; 1000 nM in experiment [5] (setting [13]).
